Data reported in the NIST ThermoML archive (doi:10.1021/je300628e).
± gives the expanded uncertainty stated by the source.

What was measured:
[1] = 101 kPa, Liquid; for viscosity: Concentric cylinders viscometry; for mass density: Vibrating tube method
[2] = wn = mass fraction of the nth substance listed; conditions: 101 kPa, Liquid; for viscosity: Concentric cylinders viscometry; for mass density: Vibrating tube method

Row | SMILES | viscosity ([1]; 303.15 K) | mass density ([1]; 303.15 K) | viscosity ([1]; 313.15 K) | mass density ([1]; 313.15 K) | viscosity ([1]; 333.15 K) | mass density ([1]; 333.15 K) | viscosity ([1]; 353.15 K) | mass density ([1]; 353.15 K) | viscosity ([1]; 363.15 K) | mass density ([1]; 363.15 K) | further results
1 | CCCCn1cc[n+](C)c1.N#CN=C=[N-] [1-butyl-3-methylimidazolium dicyanamide] | 23.92 ± 0.27 mPa·s | 1055.1 ± 1 kg/m3 | 17.12 ± 0.2 mPa·s | 1049.3 ± 0.9 kg/m3 | 10.49 ± 0.15 mPa·s | 1037.1 ± 0.9 kg/m3 | 6.773 ± 0.12 mPa·s | 1024.2 ± 0.9 kg/m3 | 5.523 ± 0.12 mPa·s | 1019.3 ± 0.9 kg/m3 | 
2 | CCCCn1cc[n+](C)c1.F[B-](F)(F)F [1-butyl-3-methylimidazolium tetrafluoroborate] | 71.63 ± 0.8 mPa·s | 1191.3 ± 1.3 kg/m3 | 46.96 ± 0.5 mPa·s | 1182.3 ± 1.2 kg/m3 | 23.8 ± 0.27 mPa·s | 1166.7 ± 1.2 kg/m3 | 13.94 ± 0.18 mPa·s | 1154.9 ± 1.2 kg/m3 | 11.32 ± 0.16 mPa·s | 1139.4 ± 1.1 kg/m3 | 
3 | CCn1cc[n+](C)c1.O=S(=O)([O-])C(F)(F)F [1-ethyl-3-methylimidazolium trifluoromethanesulfonate] | 36.14 ± 0.39 mPa·s | 1381.8 ± 1.7 kg/m3 | 26.65 ± 0.3 mPa·s | 1371.7 ± 1.7 kg/m3 | 16.45 ± 0.2 mPa·s | 1350.9 ± 1.6 kg/m3 | 12.17 ± 0.16 mPa·s | 1338.7 ± 1.6 kg/m3 | 11.14 ± 0.15 mPa·s | 1326 ± 1.6 kg/m3 | 
4 | CN(CCO)CCO [N-methyldiethanolamine] | 58.62 ± 0.47 mPa·s | 1034.7 ± 0.5 kg/m3 | 37.68 ± 0.32 mPa·s | 1027.1 ± 0.5 kg/m3 | 15.26 ± 0.16 mPa·s | 1013 ± 0.5 kg/m3 | 6.756 ± 0.11 mPa·s | 996.3 ± 0.5 kg/m3 | 4.539 ± 0.11 mPa·s | 993.9 ± 0.5 kg/m3 | 
5 | CN(CCO)CCO [N-methyldiethanolamine] + O |  |  |  |  |  |  |  |  |  |  | viscosity ([2]; 303.15 K, w1 = 0.234): 2.285 ± 0.1 mPa·s; viscosity ([2]; 303.15 K, w1 = 0.459): 2.85 ± 0.33 mPa·s; mass density ([2]; 303.15 K, w1 = 0.234): 1018.7 ± 6 kg/m3; mass density ([2]; 303.15 K, w1 = 0.459): 1018.3 ± 6 kg/m3; viscosity ([2]; 313.15 K, w1 = 0.234): 1.612 ± 0.1 mPa·s; viscosity ([2]; 313.15 K, w1 = 0.459): 2.238 ± 0.23 mPa·s; mass density ([2]; 313.15 K, w1 = 0.234): 1014.1 ± 6 kg/m3; mass density ([2]; 313.15 K, w1 = 0.459): 1011 ± 6 kg/m3; viscosity ([2]; 333.15 K, w1 = 0.234): 1.418 ± 0.1 mPa·s; viscosity ([2]; 333.15 K, w1 = 0.459): 1.621 ± 0.13 mPa·s; mass density ([2]; 333.15 K, w1 = 0.234): 1003 ± 6 kg/m3; mass density ([2]; 333.15 K, w1 = 0.459): 1005.2 ± 6 kg/m3; viscosity ([2]; 353.15 K, w1 = 0.234): 1.121 ± 0.1 mPa·s; viscosity ([2]; 353.15 K, w1 = 0.459): 1.485 ± 0.11 mPa·s; mass density ([2]; 353.15 K, w1 = 0.234): 987.2 ± 6 kg/m3; mass density ([2]; 353.15 K, w1 = 0.459): 989.6 ± 6 kg/m3; viscosity ([2]; 363.15 K, w1 = 0.234): 1.112 ± 0.1 mPa·s; viscosity ([2]; 363.15 K, w1 = 0.459): 1.337 ± 0.1 mPa·s; mass density ([2]; 363.15 K, w1 = 0.234): 981.3 ± 6 kg/m3; mass density ([2]; 363.15 K, w1 = 0.459): 971.8 ± 6 kg/m3
